In the NIST ThermoML archive (doi:10.1021/je100143k):
± gives the expanded uncertainty stated by the source.

Settings: Liquid, Ebulliometric method (Recirculating still)

Row | SMILES | vapor or sublimation pressure (263.15 K) | vapor or sublimation pressure (268.15 K) | vapor or sublimation pressure (278.15 K) | vapor or sublimation pressure (288.15 K)
1 | CCF [fluoroethane] | 311 ± 10 kPa | 372 ± 10 kPa | 517 ± 10 kPa | 700 ± 10 kPa
2 | FC(F)C(F)F [1,1,2,2-tetrafluoroethane] | 155 ± 10 kPa | 189 ± 10 kPa | 276 ± 10 kPa | 386 ± 10 kPa
